Measured values: paper PMC9017349, “Spiropyrimidinetriones: a Class of DNA Gyrase Inhibitors with Activity against Mycobacterium tuberculosis and without Cross-Resistance to Fluoroquinolones” (Antimicrobial Agents and Chemotherapy, 2022)
Values after ≈ are worked out from the molar mass of the structure shown. Read-outs that look alike come from different tables or passages of the source.

Test system: M. tuberculosis H37Rv
Test: MIC against M. tuberculosis H37Rv in 7H9 medium with various supplements
Assay type: cell-based, Mycobacterium tuberculosis
Settings: for MIC: Mycobacterium tuberculosis, H37RV; for fold more active than zoliflodacin against M. tuberculosis: H37Rv, across the MIC media
[1] = read-out: MIC, DPPC/Chol/BSA/TX

Row | Structure (SMILES) | MIC (read-out: MIC, ADC/GLU/TW) [µM] | MIC (read-out: MIC, DPPC/CAS/TX) [µM] | MIC [1] [µM] | MIC (read-out: MIC, GLU/BSA/TX) [µM] | MIC (read-out: MIC, GLU/CAS/TX) [µM] | fold more active than zoliflodacin against M. tuberculosis | activity in the M. tuberculosis MIC assays (any of the MIC media)
1 | CC1CN2c3c(cc4c(N5C(=O)OC(C)C5C)noc4c3F)CC3(C(=O)NC(=O)NC3=O)C2C(C)O1 (centres unmarked) [Compound 7] | 3.9 (≈ 1.96 µg/mL) | 37 (≈ 18.6 µg/mL) | 19 (≈ 9.53 µg/mL) | 25 (≈ 12.5 µg/mL) | 12 (≈ 6.02 µg/mL) |  | 
2 | CC1CN2c3c(cc4c(N5C(=O)OCC5c5ncnn5C)noc4c3F)CC3(C(=O)NC(=O)NC3=O)C2C(C)O1 (centres unmarked) [Compound 9] | 16 (≈ 8.87 µg/mL) | > 50 | > 50 | > 50 | 37 (≈ 20.5 µg/mL) |  | 
3 | CC1CN2c3c(cc4c(N5C(=O)OC6COCCC65)noc4c3F)CC3(C(=O)NC(=O)NC3=O)C2C(C)O1 (centres unmarked) [Compound 10] | 3.9 (≈ 2.06 µg/mL) | 12 (≈ 6.35 µg/mL) | 12 (≈ 6.35 µg/mL) | 12 (≈ 6.35 µg/mL) | 6.2 (≈ 3.28 µg/mL) |  | 
4 | C[C@@H]1CN2c3c(cc4c(-n5cncn5)noc4c3Cl)CC3(C(=O)NC(=O)NC3=O)[C@H]2[C@H](C)O1 [Compound 18] | 0.49 (≈ 0.231 µg/mL) | 3.1 (≈ 1.46 µg/mL) | 1.6 (≈ 0.755 µg/mL) | 1.6 (≈ 0.755 µg/mL) | 0.78 (≈ 0.368 µg/mL) |  | 
5 | C[C@@H]1CN2c3c(cc4c(-n5ncnc5NCCN(C)C)noc4c3F)CC3(C(=O)NC(=O)NC3=O)[C@H]2[C@H](C)O1 [Compound 15] | 2 (≈ 1.08 µg/mL) | 1.6 (≈ 0.866 µg/mL) | 3.1 (≈ 1.68 µg/mL) | 1.6 (≈ 0.866 µg/mL) | 2.3 (≈ 1.25 µg/mL) |  | 
6 | C[C@@H]1CN2c3c(cc4c(-n5ncnc5NCCO)noc4c3F)CC3(C(=O)NC(=O)NC3=O)[C@H]2[C@H](C)O1 [Compound 14] | 0.24 (≈ 0.123 µg/mL) | 1.6 (≈ 0.823 µg/mL) | 1.2 (≈ 0.617 µg/mL) | 1.2 (≈ 0.617 µg/mL) | 0.6 (≈ 0.309 µg/mL) | 16 fold | 
7 | C[C@@H]1CN2c3c(cc4c(C5=N[C@H]6COC[C@H]6N5)noc4c3F)CC3(C(=O)NC(=O)NC3=O)[C@H]2[C@H](C)O1 [Compound 21] | 3.4 (≈ 1.69 µg/mL) | 9.4 (≈ 4.69 µg/mL) | 9.4 (≈ 4.69 µg/mL) | 6.2 (≈ 3.09 µg/mL) | 6.2 (≈ 3.09 µg/mL) |  | 
8 | COCC1[C@@H](C)OC(=O)N1c1noc2c(F)c3c(cc12)CC1(C(=O)NC(=O)NC1=O)[C@H]1[C@H](C)O[C@H](C)CN31 (some centres unmarked) [Compound 11] | 31 (≈ 16.5 µg/mL) | > 50 | > 50 | > 50 | > 50 |  | 
9 | CC1CN2c3c(cc4c(N5C(=O)OC6CCOCC65)noc4c3F)CC3(C(=O)NC(=O)NC3=O)C2C(C)O1 (centres unmarked) [Compound 13] | 1.9 (≈ 1.01 µg/mL) | 12 (≈ 6.35 µg/mL) | 4.7 (≈ 2.49 µg/mL) | 6.2 (≈ 3.28 µg/mL) | 4.7 (≈ 2.49 µg/mL) |  | 
10 | CC1CN2c3c(cc4c(N5C(=O)OCC5CO)noc4c3F)CC3(C(=O)NC(=O)NC3=O)C2C(C)O1 (centres unmarked) [Compound 2] | 2 (≈ 1.01 µg/mL) | 6.2 (≈ 3.12 µg/mL) | 4.7 (≈ 2.37 µg/mL) | 6.2 (≈ 3.12 µg/mL) | 3.1 (≈ 1.56 µg/mL) |  | 
11 | C[C@@H]1CN2c3c(cc4c(-n5ncnc5N5CCOC[C@H]5C)noc4c3F)CC3(C(=O)NC(=O)NC3=O)[C@H]2[C@H](C)O1 [Compound 19] | 16 (≈ 8.87 µg/mL) | > 50 | > 50 | > 50 | > 50 |  | 
12 | COCC1COC(=O)N1c1noc2c(F)c3c(cc12)CC1(C(=O)NC(=O)NC1=O)C1C(C)OC(C)CN31 (centres unmarked) [Compound 8] | 7.8 (≈ 4.04 µg/mL) | 25 (≈ 12.9 µg/mL) | 12 (≈ 6.21 µg/mL) | 25 (≈ 12.9 µg/mL) | 19 (≈ 9.83 µg/mL) |  | 
13 | CC(=O)NCC1CN(c2cc3c(c(F)c2F)N2C[C@H](C)O[C@H](C)[C@H]2C2(C3)C(=O)NC(=O)NC2=O)C(=O)O1 (some centres unmarked) [Compound 24] | > 50 | > 50 | > 50 | > 50 | > 50 |  | did not show activity at the highest concentration tested
14 | CNc1ncnn1-c1noc2c(F)c3c(cc12)CC1(C(=O)NC(=O)NC1=O)[C@H]1[C@H](C)O[C@H](C)CN31 [Compound 17] | 0.9 (≈ 0.436 µg/mL) | 6.2 (≈ 3 µg/mL) | 6.2 (≈ 3 µg/mL) | 9.4 (≈ 4.55 µg/mL) | 3.1 (≈ 1.5 µg/mL) |  | 
15 | CC1CN2c3c(cc4c(N5CC(c6ccccn6)OC5=O)noc4c3F)CC3(C(=O)NC(=O)NC3=O)C2C(C)O1 (centres unmarked) [Compound 12] | > 50 | > 50 | > 50 | > 50 | > 50 |  | 
16 | C[C@@H]1CN2c3c(cc4c(C5=N[C@H](C)[C@@H](C)N5)noc4c3F)CC3(C(=O)NC(=O)NC3=O)[C@H]2[C@H](C)O1 [Compound 20] | 5.5 (≈ 2.66 µg/mL) | 6.2 (≈ 3 µg/mL) | 6.2 (≈ 3 µg/mL) | 4.7 (≈ 2.28 µg/mL) | 3.1 (≈ 1.5 µg/mL) |  | 
17 | COc1ncnn1-c1noc2c(F)c3c(cc12)CC1(C(=O)NC(=O)NC1=O)[C@H]1[C@H](C)O[C@H](C)CN31 [Compound 16] | 2 (≈ 0.971 µg/mL) | 12 (≈ 5.83 µg/mL) | 9.4 (≈ 4.56 µg/mL) | 12 (≈ 5.83 µg/mL) | 9.4 (≈ 4.56 µg/mL) |  | 
18 | C[C@@H]1CN(c2noc3c(F)c4c(cc23)CC2(C(=O)NC(=O)NC2=O)[C@H]2[C@H](C)O[C@H](C)CN42)C(=O)O1 [Compound 5] | 2 (≈ 0.975 µg/mL) | 12 (≈ 5.85 µg/mL) | 6.2 (≈ 3.02 µg/mL) | 9.4 (≈ 4.58 µg/mL) | 4.7 (≈ 2.29 µg/mL) | about 2 fold | 
19 | CC1CN2c3c(cc4c(N5C(=O)OC6COCC65)noc4c3F)CC3(C(=O)NC(=O)NC3=O)C2C(C)O1 (centres unmarked) [Compound 6] | 0.98 (≈ 0.505 µg/mL) | 4.7 (≈ 2.42 µg/mL) | 2.3 (≈ 1.19 µg/mL) | 3.1 (≈ 1.6 µg/mL) | 1.6 (≈ 0.825 µg/mL) |  | 
20 | CC1CN2c3c(cc4c(N5CC(CO)OC5=O)noc4c3Cl)CC3(C(=O)NC(=O)NC3=O)C2C(C)O1 (centres unmarked) [Compound 3] | 2 (≈ 1.04 µg/mL) | 6.2 (≈ 3.22 µg/mL) | 4.7 (≈ 2.44 µg/mL) | 4.7 (≈ 2.44 µg/mL) | 2.3 (≈ 1.2 µg/mL) |  | 
21 | CC1CN2c3c(cc4c(N5C(=O)OCC5CCCO)noc4c3Cl)CC3(C(=O)NC(=O)NC3=O)C2C(C)O1 (centres unmarked) [Compound 4] | 4.8 (≈ 2.63 µg/mL) | 12 (≈ 6.58 µg/mL) | 12 (≈ 6.58 µg/mL) | 12 (≈ 6.58 µg/mL) | 9.4 (≈ 5.15 µg/mL) |  | 
22 | C[C@@H]1CN2c3c(cc4c(N5CCN(C)C5=O)noc4c3F)CC3(C(=O)NC(=O)NC3=O)[C@H]2[C@H](C)O1 [Compound 23] | 4.3 (≈ 2.09 µg/mL) | 37 (≈ 18 µg/mL) | 12 (≈ 5.84 µg/mL) | 19 (≈ 9.24 µg/mL) | 6.2 (≈ 3.02 µg/mL) |  | 
